Measured values published in patent US5981545A, “N-linked azabicyclic heterocycles useful for treating dementia” (Beecham Group p.l.c., priority 1989, dated 1999).
Structures can show the parent of a compound that is named as a salt.

Columns and labels:
muscarinic receptors [1] = assay: Radio ligand binding, displacement of muscarinic agonist 3H-Oxotremorine-M (3H-OXO-M), rat cerebral cortex membranes; design: species or system Hooded Lister rats; conditions: 2 nM 3H-OXO-M, 2 mM magnesium chloride, tris pH 7.7, 37° C., 30 min
muscarinic receptors [2] = assay: Radio ligand binding, displacement of muscarinic antagonist 3H-Quinuclidinyl Benzilate (3H-QNB), rat cerebral cortex membranes; design: species or system Hooded Lister rats; conditions: 0.27 nM 3H-QNB, tris pH 7.7, 37° C., 30 min

## Cc1ncn(C2CN3CCC2CC3)n1 (racemic) [E6, (±) 3-(3-Methyl-1,2,4-triazol-1-yl)-1-azabicyclo[2.2.2] octane dihydrochloride salt]
Muscarinic receptors [1]
  IC50: 67.5 nM
Muscarinic receptors [2]
  IC50: 5600 nM

## Nc1ncnn1C1CN2CCC1CC2 (racemic) [E39, (±) 3-(5-amino-1,2,4-triazol-1-yl)-1-azabicyclo[2.2.2]octane dihydrochloride salt]
Muscarinic receptors [1]
  IC50: 14500 nM

## c1nnn([C@@H]2CN3CC[C@@H]2C3)n1 (relative stereo) [E19, (±) exo-3-(Tetrazol-2-yl)-1-azabicyclo[2.2.1]heptane hydrochloride salt]
Muscarinic receptors [1]
  IC50: 30 nM
Muscarinic receptors [2]
  IC50: 22300 nM

## N#Cc1nnn(C2CN3CCC2CC3)n1 (racemic) [E46, (±) 3-(5-Cyanotetrazol-2-yl)-1-azabicyclo[2.2.2]octane oxalate salt]
Muscarinic receptors [1]
  IC50: 1400 nM
Muscarinic receptors [2]
  IC50: 7750 nM

## Clc1ncn(C2CN3CCC2CC3)n1 (racemic) [E48, (±) 3-(3-Chloro-1,2,4-triazol-1-yl)-1-azabicyclo[2.2.2] octane oxalate salt]
Muscarinic receptors [1]
  IC50: 195 nM
Muscarinic receptors [2]
  IC50: 9000 nM

## Ic1nnn([C@@H]2CN3CC[C@@H]2C3)n1 (relative stereo) [E43, (±) exo-3-(5-Iodotetrazol-2-yl)-1-azabicyclo[2.2.1]heptane oxalate salt]
Muscarinic receptors [1]
  IC50: 42 nM
Muscarinic receptors [2]
  IC50: 330 nM

## c1nnn([C@H]2C[C@@H]3CCN(C3)C2)n1 (relative stereo) [E22, (±) exo-3-(Tetrazol-2-yl)-1-azabicyclo[3.2.1]octane hydrochloride salt]
Muscarinic receptors [1]
  IC50: 153 nM
Muscarinic receptors [2]
  IC50: 55000 nM

## Cc1ncn(C2=CN3CCC2CC3)n1 [E5, 3-(3-Methyl-1,2,4-triazol-1-yl)-1-azabicyclo[2.2.2]oct-2-ene dihydrochloride]
Muscarinic receptors [1]
  IC50: 651 nM
Muscarinic receptors [2]
  IC50: 30300 nM

## c1nnn(C2CN3CCC2CC3)n1 (racemic) [E15, (±) 3-(Tetrazol-2-yl)-1-azabicyclo[2.2.2]octane hydrochloride salt]
Muscarinic receptors [1]
  IC50: 242 nM
Muscarinic receptors [2]
  IC50: 28100 nM

## Cc1ccn(C2CN3CCC2CC3)n1 (racemic) [E1, (±) 3-(3-Methylpyrazol-1-yl)-1-azabicyclo[2.2.2]octane oxalate salt]
Muscarinic receptors [1]
  IC50: 369 nM
Muscarinic receptors [2]
  IC50: 5000 nM

## Cc1nnn([C@@H]2CN3CC[C@@H]2C3)n1 (relative stereo) [E20, (±) exo-3-(5-Methyltetrazol-2-yl)-1-azabicyclo[2.2.1] heptane hydrochloride salt]
Muscarinic receptors [1]
  IC50: 4.5 nM
Muscarinic receptors [2]
  IC50: 3000 nM

## Nc1nnn([C@@H]2CN3CC[C@@H]2C3)n1 (relative stereo) [E18, (±) exo-3-(5-Aminotetrazol-2-yl)-1-azabicyclo[2.2.1] heptane]
Muscarinic receptors [1]
  IC50: 2.62 nM
Muscarinic receptors [2]
  IC50: 4300 nM

## Cc1ncn(C23CCCN(CC2)C3)n1 (racemic) [E28, (±) 5-(3-Methyl-1,2,4-triazol-1-yl)-1-azabicyclo-[3.2.1]octane dihydrochloride salt]
Muscarinic receptors [1]
  IC50: 17 nM
Muscarinic receptors [2]
  IC50: 2600 nM

## Nc1ncn(C2CN3CCC2CC3)n1 (racemic) [E38, (±) 3-(3-Amino-1,2,4-triazol-1-yl)-1-azabicyclo-[2.2.2]octane]
Muscarinic receptors [1]
  IC50: 180 nM
Muscarinic receptors [2]
  IC50: 14500 nM

## Clc1nnn([C@@H]2CN3CC[C@@H]2C3)n1 (relative stereo) [E42, (±) exo-3-(5-Chlorotetrazol-2-yl)-1-azabicyclo[2.2.1]heptane oxalate salt]
Muscarinic receptors [1]
  IC50: 7.6 nM
Muscarinic receptors [2]
  IC50: 700 nM

## Brc1nnn(C2CN3CCC2CC3)n1 (racemic) [E40, (±) 3-[5-Bromotetrazol-2-yl]-1-azabicyclo[2.2.2]octane oxalate salt]
Muscarinic receptors [1]
  IC50: 19.7 nM
Muscarinic receptors [2]
  IC50: 488 nM

## Clc1nnn(C2CN3CCC2CC3)n1 (racemic) [E44, (±) 3-(5-Chlorotetrazol-2-yl)-1-azabicyclo[2.2.2]octane oxalate salt]
Muscarinic receptors [1]
  IC50: 31.8 nM
Muscarinic receptors [2]
  IC50: 725 nM

## Nc1nnn([C@H]2C[C@@H]3CCN(C3)C2)n1 (relative stereo) [E17, (±) exo-3-(5-Aminotetrazol-2-yl)-1-azabicyclo[3.2.1] octane hydrochloride]
Muscarinic receptors [1]
  IC50: 170 nM
Muscarinic receptors [2]
  IC50: 2700 nM

## Brc1nnn(C23CCCN(CC2)C3)n1 (racemic) [E50, (±) 5-(5-Bromotetrazol-2-yl)-1-azabicyclo[3.2.1]octane]
Muscarinic receptors [1]
  IC50: 6.5 nM
Muscarinic receptors [2]
  IC50: 410 nM

## Nc1nnnn1C12CCCN(CC1)C2 (racemic) [E34, (±) 5-(5-aminotetrazol-1-yl)-1-azabicyclo[3.2.1]octane]
Muscarinic receptors [1]
  IC50: 1400 nM

## Cc1nnnn1[C@@H]1CN2CC[C@@H]1C2 (relative stereo) [E21, (±) exo-3-(5-Methyltetrazol-1-yl)-1-azabicyclo[2.2.1] heptane hydrochloride salt]
Muscarinic receptors [1]
  IC50: 6600 nM
Muscarinic receptors [2]
  IC50: 310000 nM

## Cc1ncn([C@@H]2CN3CC[C@@H]2C3)n1 (relative stereo) [E8, (±) exo-3-(3-Methyl-1,2,4-triazol-1-yl)-1-azabicyclo-[2.2.1]heptane dihydrochloride salt]
Muscarinic receptors [1]
  IC50: 22 nM
Muscarinic receptors [2]
  IC50: 6300 nM

## Cc1nnn(C23CCCN(CC2)C3)n1 (racemic) [E31, (±) 5-(5-Methyltetrazol-2-yl)-1-azabicyclo[3.2.1]octane]
Muscarinic receptors [1]
  IC50: 11.5 nM
Muscarinic receptors [2]
  IC50: 2900 nM

## c1ncn([C@@H]2CN3CC[C@@H]2C3)n1 (relative stereo) [E9, (±) exo-3-(1,2,4-Triazol-1-yl)-1-azabicyclo[2.2.1]heptane dihydrochloride salt]
Muscarinic receptors [1]
  IC50: 48 nM
Muscarinic receptors [2]
  IC50: 43000 nM

## CCc1nnn([C@@H]2CN3CC[C@@H]2C3)n1 (relative stereo) [E23, (±) exo-3-(5-Ethyltetrazol-2-yl)-1-azabicyclo[2.2.1] heptane hydrochloride salt]
Muscarinic receptors [1]
  IC50: 325 nM
Muscarinic receptors [2]
  IC50: 3300 nM

## c1ncn(C23CCN(CC2)C3)n1 [E51, 4-(1,2,4-Triazol-1-yl)-1-azabicyclo[2.2.1]heptane oxalate salt]
Muscarinic receptors [1]
  IC50: 16.5 nM
Muscarinic receptors [2]
  IC50: 65200 nM

## Nc1ncnn1C12CCCN(CC1)C2 (racemic) [E37, (±) 5-(5-amino-1,2,4-triazol-1-yl)-1-azabicyclo[3.2.1]octane]
Muscarinic receptors [1]
  IC50: 130 nM
Muscarinic receptors [2]
  IC50: 58000 nM

## Brc1ncn([C@@H]2CN3CC[C@@H]2C3)n1 (relative stereo) [E54, (±) exo-3-(3-Bromo-1,2,4-triazol-1-yl)-1-azabicyclo-[2.2.1]heptane oxalate salt]
Muscarinic receptors [1]
  IC50: 32 nM
Muscarinic receptors [2]
  IC50: 4400 nM

## Cc1nnn(C2CN3CCC2CC3)n1 (racemic) [E10, (±) 3-(5-Methyltetrazol-2-yl)-1-azabicyclo[2.2.2]octane hydrochloride salt]
Muscarinic receptors [1]
  IC50: 30 nM
Muscarinic receptors [2]
  IC50: 2800 nM

## Nc1nnn(C2CN3CCC2CC3)n1 (racemic) [E11, (±) 3-(5-Aminotetrazol-2-yl)-1-azabicyclo[2.2.2]octane]
Muscarinic receptors [1]
  IC50: 38 nM
Muscarinic receptors [2]
  IC50: 6500 nM

## c1nnnn1C12CCCN(CC1)C2 (racemic) [E30, (±) 5-(tetrazol-1-yl)-1-azabicyclo[3.2.1]octane]
Muscarinic receptors [1]
  IC50: 1400 nM

## Cc1cnn(C2CN3CCC2CC3)n1 (racemic) [E12, (±) 3-(4-Methyl-1,2,3-triazol-2-yl)-1-azabicyclo-[2.2.2]octane hydrochloride]
Muscarinic receptors [1]
  IC50: 260 nM
Muscarinic receptors [2]
  IC50: 2100 nM

## c1nnnn1C1CN2CCC1CC2 (racemic) [E16, (±) 3-(Tetrazol-1-yl)-1-azabicyclo[2.2.2]octane hydrochloride salt]
Muscarinic receptors [1]
  IC50: 2750 nM
Muscarinic receptors [2]
  IC50: 110000 nM

## Nc1ncn(C23CCCN(CC2)C3)n1 (racemic) [E36, (±) 5-(3-Amino-1,2,4-triazol-1-yl)-1-azabicyclo[3.2.1]octane]
Muscarinic receptors [1]
  IC50: 19.5 nM
Muscarinic receptors [2]
  IC50: 6750 nM

## Nc1nnn(C23CCCN(CC2)C3)n1 (racemic) [E33, (±) 5-(5-Aminotetrazol-2-yl)-1-azabicyclo[3.2.1]octane]
Muscarinic receptors [1]
  IC50: 7.5 nM
Muscarinic receptors [2]
  IC50: 6200 nM

## Brc1nnn([C@@H]2CN3CC[C@@H]2C3)n1 (relative stereo) [E41, (±) exo-3-(5-Bromotetrazol-2-yl)-1-azabicyclo[2.2.1]heptane oxalate salt]
Muscarinic receptors [1]
  IC50: 6.5 nM
Muscarinic receptors [2]
  IC50: 1500 nM

## c1nnn(C23CCCN(CC2)C3)n1 (centres unmarked) [E29, 5-(Tetrazol-2-yl)-1-azabicyclo[3.2.1]octane]
Muscarinic receptors [1]
  IC50: 22 nM
Muscarinic receptors [2]
  IC50: 12800 nM

## Cc1cnn([C@@H]2CN3CC[C@@H]2C3)n1 (relative stereo) [E25, (±) exo-3-(4-Methyl-1,2,3-triazol-2-yl)-1-azabicyclo-[2.2.1]heptane hydrochloride salt]
Muscarinic receptors [1]
  IC50: 180 nM
Muscarinic receptors [2]
  IC50: 22000 nM

## c1ncn(C23CCCN(CC2)C3)n1 (racemic) [E27, (±) 5-(1,2,4-Triazol-1-yl)-1-azabicyclo[3.2.1]octane dihydrochloride salt]
Muscarinic receptors [1]
  IC50: 12 nM
Muscarinic receptors [2]
  IC50: 3200 nM

## Clc1nnn(C23CCCN(CC2)C3)n1 (racemic) [E49, (±) 5-(5-Chlorotetrazol-2-yl)-1-azabicyclo[3.2.1]octane oxalate salt]
Muscarinic receptors [1]
  IC50: 3.2 nM
Muscarinic receptors [2]
  IC50: 500 nM

## Brc1ncn(C2CN3CCC2CC3)n1 (racemic) [E47, (±) 3-(3-Bromo-1,2,4-triazol-1-yl)-1-azabicyclo[2.2.2]-octane oxalate salt]
Muscarinic receptors [1]
  IC50: 100 nM
Muscarinic receptors [2]
  IC50: 3300 nM

## c1cnn(C2CN3CCC2CC3)c1 (racemic) [E2, (±) 3-(Pyrazol-1-yl)-1-azabicyclo[2.2.2]octane dihydrochloride salt]
Muscarinic receptors [1]
  IC50: 1250 nM
Muscarinic receptors [2]
  IC50: 35000 nM

## c1ncn(C2CN3CCC2CC3)n1 (racemic) [E7, (±) 3-(1,2,4-Triazol-1-yl)-1-azabicyclo[2.2.2]octane dihydrochloride salt]
Muscarinic receptors [1]
  IC50: 475 nM
Muscarinic receptors [2]
  IC50: 44000 nM
